According to patent publication US20240398817A1, “CARDIO- AND RENOSAFE ANTIDIABETIC THERAPY” (priority 2018, published 2024):

Test system: patients with type 2 diabetes at high vascular risk
Test: Cardiovascular and Renal Outcomes Trial: linagliptin 5 mg once daily vs placebo on top of standard of care
Type: in vivo
Conditions: for Hazard ratio for hospitalised heart failure: vs placebo
Method: The effect of linagliptin on cardiovascular risk in adult patients with type 2 diabetes mellitus and with increased CV risk evidenced by a history of established macrovascular or renal disease (e.g. as defined herein) was evaluated in a multi-center, multi-national, randomized, double-blind parallel group trial. The trial compared the risk of experiencing a major adverse cardiovascular event (MACE) between linagliptin and placebo when these were added to and used concomitantly with standard of care treatments for diabetes (HbA1c), cardiovascular risk factors and renal disease.
The primary endpoint in this trial was the time to first occurrence of three point (3P) MACE. A major adverse cardiac event was defined as a cardiovascular death or a nonfatal myocardial infarction (MI) or a nonfatal stroke. The statistical analysis plan tested for non-inferiority for the occurrence of (3P) MACE. […] The secondary endpoint was a renal composite, defined as renal death or sustained end stage renal disease or sustained decrease of 40% or more in eGFR.
Type 2 diabetes patient with insufficient glycemic control (naïve or pre-treated with any antidiabetic background medication, excluding treatment with GLP-1 receptor agonists, DPP-4inhibitors or SGLT-2 inhibitors if ≥consecutive 7 days, e.g. having HbA1c 6.5-10%), and high risk of cardiovascular events, e.g. defined by: • albuminuria (micro or macro) and previous macrovascular disease: e.g. defined according to Condition I as indicated below; • and/or • impaired renal function: e.g. as defined according to Condition II as indicated below;
Background and aims: People with type 2 diabetes (T2D) are at increased risk for hospitalization for heart failure (hHF), particularly in the setting of concomitant cardiovascular (CV) and/or kidney disease. […] Here we present analyses of HF outcomes with the DPP-4 inhibitor linagliptin (LINA) vs. placebo (PBO) from a Cardiovascular and Renal Outcomes Trial assessing cardiovascular safety and renal microvascular outcome in patients with type 2 diabetes at high vascular risk, a large CV outcomes trial that enrolled participants with T2D at high risk for hHF due to concomitant CV and/or chronic kidney disease. Materials and methods: People with T2D and concomitant CV and/or kidney disease were randomized to receive LINA 5 mg, or PBO once daily (1:1), on top of standard of care. All hHF, CV outcomes, and deaths were centrally adjudicated, with individual and composite HF-related outcomes analyses comparing LINA vs. placebo. Investigator-reported HF-related adverse events, whether or not confirmed by adjudication, were also analyzed. A Cox proportional hazards model adjusting for region and history of HF was used for analyses of first events. Recurrent hHF events were analyzed using a negative binomial model.
Methods: The present Cardiovascular and Renal Outcomes Trial randomized people with T2D and i) concomitant CV disease with UACR >30 mg/g or ii) prevalent CKD (i.e. GFR <45 ml/min/1.73m2 and/or UACR >200 mg/g) to receive the DPP-4 inhibitor linagliptin (5 mg) or placebo once daily in a double-blind fashion. The primary CV endpoint was 3P-MACE, with a key secondary kidney endpoint (adjudicated ESKD, renal death, or sustained ≥40% decrease in eGFR from baseline) and other renal outcomes (including albuminuria and eGFR slope) also assessed. Subgroups were assessed by baseline kidney function (eGFR ≥/<45 ml/min/1.73m2and eGFR ≥/<30, 45 or 60 ml/min/1.73m2).
Adults with type 2 diabetes, HbA1c 6.5-10.0% inclusive, and high CV risk were eligible for inclusion. […] Macrovascular disease eligibility criteria was based on documented and confirmed history of myocardial infarction, coronary artery disease, stroke, carotid artery disease, or peripheral artery disease. Participants with end-stage kidney disease (ESKD), defined as eGFR <15 or requiring maintenance dialysis, were excluded.

[1] = ACE inhibitors/angiotensin receptor blockers No
[2] = ACE inhibitors/angiotensin receptor blockers Yes
[3] = Albuminuria and previous macrovascular disease plus eGFR 45-75 with an UACR >200 mg/g
[4] = Albuminuria and previous macrovascular disease plus renal impairment (eGFR 15-<45 with any UACR)
[5] = Albuminuria and previous macrovascular disease without eGFR >45 mL/min/1.73 m2
[6] = Angiotensin-converting enzyme inhibitors No
[7] = Angiotensin-converting enzyme inhibitors Yes
[8] = Angiotensin-converting enzyme inhibitors/angiotensin receptor blockers No
[9] = Angiotensin-converting enzyme inhibitors/angiotensin receptor blockers Yes
[10] = Blood pressure control SBP <140 mmHg
[11] = Blood pressure control SBP <160 mmHg
[12] = Blood pressure control SBP ≥140 mmHg
[13] = Blood pressure control SBP ≥160 mmHg

Compound: CC#CCn1c(N2CCC[C@@H](N)C2)nc2c1c(=O)n(Cc1nc(C)c3ccccc3n1)c(=O)n2C [Linagliptin, 1-[(4-methyl-quinazolin-2-yl)methyl]-3-methyl-7-(2-butyn-1-yl)-8-(3-(R)-amino-piperidin-1-yl)-xanthine]
- 3-point MACE: hazard ratio vs placebo [1]: 0.93
- 3-point MACE: patients with event/patients analyzed [1]: 89/634
- Key secondary kidney outcome: hazard ratio vs placebo [1]: 0.96
- Key secondary kidney outcome: patients with event/patients analyzed [1]: 62/634
- 3-point MACE: hazard ratio vs placebo [2]: 1.06
- 3-point MACE: patients with event/patients analyzed [2]: 345/2860
- Key secondary kidney outcome: hazard ratio vs placebo [2]: 1.07
- Key secondary kidney outcome: patients with event/patients analyzed [2]: 265/2860
- 3-point MACE: hazard ratio vs placebo (Age <65 years): 1.11
- 3-point MACE: patients with event/patients analyzed (Age <65 years): 154/1467
- Key secondary kidney outcome: hazard ratio vs placebo (Age <65 years): 1.05
- Key secondary kidney outcome: patients with event/patients analyzed (Age <65 years): 180/1467
- Patients with event/patients analysed, hospitalised heart failure (Age <65 years): 67/1467
- Hazard ratio for hospitalised heart failure (Age <65 years): 0.87
- 3-point MACE: hazard ratio vs placebo (Age ≥65 years): 0.97
- 3-point MACE: patients with event/patients analyzed (Age ≥65 years): 280/2027
- Key secondary kidney outcome: hazard ratio vs placebo (Age ≥65 years): 1.05
- Key secondary kidney outcome: patients with event/patients analyzed (Age ≥65 years): 147/2027
- Patients with event/patients analysed, hospitalised heart failure (Age ≥65 years): 142/2027
- Hazard ratio for hospitalised heart failure (Age ≥65 years): 0.91
- 3-point MACE: hazard ratio vs placebo [3]: 0.88
- 3-point MACE: patients with event/patients analyzed [3]: 119/647
- Key secondary kidney outcome: hazard ratio vs placebo [3]: 0.99
- Key secondary kidney outcome: patients with event/patients analyzed [3]: 74/647
- 3-point MACE: hazard ratio vs placebo [4]: 1.12
- 3-point MACE: patients with event/patients analyzed [4]: 195/1462
- Key secondary kidney outcome: hazard ratio vs placebo [4]: 1.01
- Key secondary kidney outcome: patients with event/patients analyzed [4]: 215/1462
- 3-point MACE: hazard ratio vs placebo [5]: 0.97
- Key secondary kidney outcome: hazard ratio vs placebo [5]: 1.22
- 3-point MACE: patients with event/patients analyzed (All patients): 434/3493
- Key secondary kidney outcome: patients with event/patients analyzed (All patients): 327/3493
- Patients with event/patients analysed, hospitalised heart failure (All patients): 209/3494
- Hazard ratio for hospitalised heart failure (All patients): 0.90
- Patients with event/patients analysed, hospitalised heart failure [6]: 132/1920
- Hazard ratio for hospitalised heart failure [6]: 1.02
- Patients with event/patients analysed, hospitalised heart failure [7]: 77/1574
- Hazard ratio for hospitalised heart failure [7]: 0.75
- Patients with event/patients analysed, hospitalised heart failure [8]: 48/634
- Hazard ratio for hospitalised heart failure [8]: 0.84
- Patients with event/patients analysed, hospitalised heart failure [9]: 161/2860
- Hazard ratio for hospitalised heart failure [9]: 0.92
- 3-point MACE: hazard ratio vs placebo (Antiplatelet drugs No): 1.10
- 3-point MACE: patients with event/patients analyzed (Antiplatelet drugs No): 125/1102
- Key secondary kidney outcome: hazard ratio vs placebo (Antiplatelet drugs No): 1.25
- Key secondary kidney outcome: patients with event/patients analyzed (Antiplatelet drugs No): 131/1102
- Patients with event/patients analysed, hospitalised heart failure (Antiplatelet drugs No): 61/1102
- Hazard ratio for hospitalised heart failure (Antiplatelet drugs No): 0.94
- 3-point MACE: hazard ratio vs placebo (Antiplatelet drugs Yes): 0.99
- 3-point MACE: patients with event/patients analyzed (Antiplatelet drugs Yes): 309/2392
- Key secondary kidney outcome: hazard ratio vs placebo (Antiplatelet drugs Yes): 0.94
- Key secondary kidney outcome: patients with event/patients analyzed (Antiplatelet drugs Yes): 196/2392
- Patients with event/patients analysed, hospitalised heart failure (Antiplatelet drugs Yes): 148/2392
- Hazard ratio for hospitalised heart failure (Antiplatelet drugs Yes): 0.88
- Patients with event/patients analysed, hospitalised heart failure (Atrial fibrillation No): 154/3175
- Hazard ratio for hospitalised heart failure (Atrial fibrillation No): 0.86
- Patients with event/patients analysed, hospitalised heart failure (Atrial fibrillation Yes): 55/319
- Hazard ratio for hospitalised heart failure (Atrial fibrillation Yes): 1.06
- 3-point MACE: hazard ratio vs placebo (Beta blockers No): 0.87
- 3-point MACE: patients with event/patients analyzed (Beta blockers No): 134/1414
- Key secondary kidney outcome: hazard ratio vs placebo (Beta blockers No): 1.14
- Key secondary kidney outcome: patients with event/patients analyzed (Beta blockers No): 161/1414
- Patients with event/patients analysed, hospitalised heart failure (Beta blockers No): 55/1414
- Hazard ratio for hospitalised heart failure (Beta blockers No): 0.95
- 3-point MACE: hazard ratio vs placebo (Beta blockers Yes): 1.11
- 3-point MACE: patients with event/patients analyzed (Beta blockers Yes): 300/2080
- Key secondary kidney outcome: hazard ratio vs placebo (Beta blockers Yes): 0.97
- Key secondary kidney outcome: patients with event/patients analyzed (Beta blockers Yes): 166/2080
- Patients with event/patients analysed, hospitalised heart failure (Beta blockers Yes): 154/2080
- Hazard ratio for hospitalised heart failure (Beta blockers Yes): 0.88
- Patients with event/patients analysed, hospitalised heart failure [10]: 84/1750
- Hazard ratio for hospitalised heart failure [10]: 0.68
- Patients with event/patients analysed, hospitalised heart failure [11]: 164/3017
- Hazard ratio for hospitalised heart failure [11]: 0.84
- Patients with event/patients analysed, hospitalised heart failure [12]: 125/1744
- Hazard ratio for hospitalised heart failure [12]: 1.15
- Patients with event/patients analysed, hospitalised heart failure [13]: 45/477
- Hazard ratio for hospitalised heart failure [13]: 1.24
- 3-point MACE: hazard ratio vs placebo (Body mass index <30 kg/m^2): 0.98
- 3-point MACE: patients with event/patients analyzed (Body mass index <30 kg/m^2): 191/1516
- Key secondary kidney outcome: hazard ratio vs placebo (Body mass index <30 kg/m^2): 1.14
- Key secondary kidney outcome: patients with event/patients analyzed (Body mass index <30 kg/m^2): 162/1516
- Patients with event/patients analysed, hospitalised heart failure (Body mass index <30 kg/m^2): 78/1516
- Hazard ratio for hospitalised heart failure (Body mass index <30 kg/m^2): 0.98
